In article PMC6052858 (Die Pharmazie, 2009):
Where “and” joins values, the source holds several entries; their conditions need not be identical. Identical values can stand only once. Like-named read-outs stand apart in the source and are kept apart here.

Key:
[1] = Metabolic stability of diltiazem in rat liver S9 fraction; type: in vitro ADME
[2] = Transport of diltiazem mucosal to serosal, normal sac method, rat duodenum; type: in vitro ADME; settings: rifampicin pretreatment
[3] = extensive presystemic metabolism; ref Kane et al. 2000; cited from earlier work
in vivo = settings: male, Wistar, rat, po, 15 mg/kg
[4] = with GFJ; cited from earlier work
[5] = cited from earlier work
P-gp = settings: chronic administration of GFJ; ref Varma 2005; cited from earlier work
[6] = multiple dose GFJ, listed as DTZ

## COc1ccc([C@@H]2Sc3ccccc3N(CCN(C)C)C(=O)[C@@H]2OC(C)=O)cc1 [Diltiazem, diltiazem]
[1]; control rat liver S9, diltiazem alone 12.5 µM, 1 mg protein/ml, 37 °C, 0 min
  % metabolism of diltiazem: 0%
[1]; control rat liver S9, diltiazem alone, 5 min
  % metabolism of diltiazem: 36.61%
[1]; control rat liver S9, diltiazem alone, 10 min
  % metabolism of diltiazem: 49.01%
[1]; control rat liver S9, diltiazem alone, 20 min
  % metabolism of diltiazem: 60.15%
[1]; control rat liver S9, diltiazem alone, 30 min
  % metabolism of diltiazem: 69.56%
[1]; control rat liver S9, diltiazem alone, 40 min
  % metabolism of diltiazem: 77.47%
[1]; control rat liver S9, diltiazem alone, 60 min
  % metabolism of diltiazem: 88.91%
[1]; control rat liver S9, diltiazem alone, 60 min, listed as DTZ
  % metabolism of diltiazem: 88.9%
[1]; control rat liver S9, in presence of testosterone, 0 min
  % metabolism of diltiazem: 0%
[1]; control rat liver S9, in presence of testosterone, 5 min
  % metabolism of diltiazem: 9.19%
[1]; control rat liver S9, in presence of testosterone, 10 min
  % metabolism of diltiazem: 16.32%
[1]; control rat liver S9, in presence of testosterone, 20 min
  % metabolism of diltiazem: 29.91%
[1]; control rat liver S9, in presence of testosterone, 30 min
  % metabolism of diltiazem: 35.67%
[1]; control rat liver S9, in presence of testosterone, 40 min
  % metabolism of diltiazem: 38.16%
[1]; control rat liver S9, in presence of testosterone, 60 min
  % metabolism of diltiazem: 41.25%
[1]; liver S9 from rats treated with GFJ orally for 7 days, 0 min
  % metabolism of diltiazem: 0%
[1]; liver S9 from rats treated with GFJ orally for 7 days, 5 min
  % metabolism of diltiazem: 12.79%
[1]; liver S9 from rats treated with GFJ orally for 7 days, 10 min
  % metabolism of diltiazem: 21.11%
[1]; liver S9 from rats treated with GFJ orally for 7 days, 20 min
  % metabolism of diltiazem: 28.49%
[1]; liver S9 from rats treated with GFJ orally for 7 days, 30 min
  % metabolism of diltiazem: 31.38%
[1]; liver S9 from rats treated with GFJ orally for 7 days, 40 min
  % metabolism of diltiazem: 40.76%
[1]; liver S9 from rats treated with GFJ orally for 7 days, 60 min
  % metabolism of diltiazem: 48.26%
[1]; liver S9 from rats treated with GFJ orally for 7 days, 60 min, listed as DTZ
  % metabolism of diltiazem: 48.3%
[2]
  Increase of mean cumulative efflux of diltiazem vs control: 35.79%
Diltiazem 15 mg/kg p.o with single dose GFJ
  T1/2: 31.2 min
Multiple dose GFJ
  AUC0–24 (AUC0–t), % inhibition (decrease) compared to control: 43.22%
  Cmax, % inhibition (decrease) compared to control: 66.09%
  T1/2, % change compared to control (footnote: % inhibition; text: increased): 136.7%
  Tmax, % change compared to control (footnote: % inhibition; text: increased): 437.5%
[6]
  AUC0–24 (AUC0–t), % inhibition (decrease) compared to control: 43.2%
  AUC0–∞, % inhibition (decrease) compared to control: 35.1%
  Cmax, % inhibition (decrease) compared to control: 66.0% and 66.1%
  Tmax, % change compared to control (footnote: % inhibition; text: increased): 437.5%
Single dose GFJ
  AUC0–24 (AUC0–t), % inhibition (decrease) compared to control: 1.26%
  AUC0–∞, % inhibition (decrease) compared to control: 17.98%
  Cmax, % inhibition (decrease) compared to control: 23.1%
  T1/2, % change compared to control (footnote: % inhibition): 6.12%
  Tmax, % change compared to control (footnote: % inhibition): 0%
Single dose GFJ, listed as DTZ
  Cmax, % inhibition (decrease) compared to control: 23.14%
  T1/2, % change compared to control (footnote: % inhibition): no statistically significant change
  Tmax, % change compared to control (footnote: % inhibition): no change
[3]
  oral bioavailability: 40–50%
In vivo; in vivo
  AUC(0-inf): 51.5 ng·h/mL
In vivo; plasma
  Tmax: 4.8 min
In vivo; plasma, AUC0–24, diltiazem 15 mg/kg p.o with water (control)
  AUC(0-t): 43.6 ng·h/mL
In vivo; plasma, AUC0–24, diltiazem 15 mg/kg p.o, multiple dose GFJ
  AUC(0-t): 24.8 ng·h/mL
In vivo; plasma, AUC0–∞, diltiazem 15 mg/kg p.o with water (control)
  AUC(0-inf): 62.8 ng·h/mL
In vivo; plasma, AUC0–∞, diltiazem 15 mg/kg p.o, multiple dose GFJ
  AUC(0-inf): 33.7 ng·h/mL
In vivo; plasma, Cmax, diltiazem 15 mg/kg p.o with water (control), n = 6
  Cmax: 121 ± 16.4 ng/mL
In vivo; plasma, T1/2, diltiazem 15 mg/kg p.o with water (control)
  half-life: 29.4 min

## CCOC(=O)C1=C(COCCN)NC(C)=C(C(=O)OC)C1c1ccccc1Cl (stereo not drawn) [amlodipine]
[4]
  increase of Tmax: 115%

## COC(=O)C1=C(C)NC(C)=C(C(=O)OC)C1c1ccccc1[N+](=O)[O-] [nifedipine]
[5]; intraduodenal, GFJ administered concomitantly, ref Mohri et al. 2000
  reduction of area under the curve: 50%
[5]; rats, long-term administration of GFJ, intraduodenally, ref Mohri et al. (2000)
  increase of nifedipine levels: approximately 1.62 times

## CC(=O)O[C@H]1C(=O)[C@@]2(C)[C@H]([C@H](OC(=O)c3ccccc3)[C@]3(O)C[C@H](OC(=O)[C@H](O)[C@@H](NC(=O)c4ccccc4)c4ccccc4)C(C)=C1C3(C)C)[C@]1(OC(C)=O)CO[C@@H]1C[C@@H]2O [paclitaxel]
P-gp
  efflux ratio (ER): 20.8
